Experimental findings from patent US6908931B2, “Tetrahydroisoquinoline derivatives as melatonin MT2 antagonists” (Bristol-Myers Squibb Company, priority 2003, dated 2005) are described below.

The target in the assay is T1, human MT2 receptor (Homo sapiens, UniProt P49286).
T1 construct: melatonin MT1 and MT2 receptors cDNA were individually subcloned into pcDNA3 and introduced into NIH-3T3 cells using Lipofectamine; expressed in transfected cells
T1 sequence (P49286 1-362): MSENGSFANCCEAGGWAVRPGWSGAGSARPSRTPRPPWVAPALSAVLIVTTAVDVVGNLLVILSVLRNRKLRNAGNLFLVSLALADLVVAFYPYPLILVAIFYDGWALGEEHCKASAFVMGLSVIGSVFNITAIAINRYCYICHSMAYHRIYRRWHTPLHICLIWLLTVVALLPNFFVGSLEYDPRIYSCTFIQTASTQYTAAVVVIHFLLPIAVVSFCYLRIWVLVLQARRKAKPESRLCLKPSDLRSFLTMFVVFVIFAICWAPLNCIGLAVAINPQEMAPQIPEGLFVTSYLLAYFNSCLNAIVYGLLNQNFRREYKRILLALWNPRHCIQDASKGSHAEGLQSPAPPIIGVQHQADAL
Kind of assay: Melatonin receptor binding assay (MT2), 2-[125I]-iodomelatonin. The note with it: membrane homogenates of NIH-3T3 cells expressing MT2; 2-[125I]-iodomelatonin 0.2 nM; 37° C., 1 hour; read-out: MT2 IC50. On the procedure:
Melatonin receptor binding assay.
Membrane homogenates: melatonin MT1 and MT2 receptors cDNA were individually subcloned into pcDNA3 and introduced into NIH-3T3 cells using Lipofectamine. […] For preparing membrane homogenates, pellets are thawed on ice, and re-suspended in TME buffer in the presence of 10 μg/ml aprotinin and leupeptin, and 100 μM phenylmethylsulfonylfluoride. The cells were then homogenized using a dounce homogenizer, and centrifuged. The resulting pellet was re-suspended with dounce homogenizer in TME (supplemented with the above protease inhibitors) and frozen. On the day of assay, a small aliquot was thawed on ice and re-suspended in the ice cold TME (1:50-1:100 v/v) and held on ice until assayed. Incubation is at 37° C. for 1 hour. Reaction is terminated by filtration. Filters were washed 3 times.
Consider `COc1cc2c(cc1OC)C(CC(c1ccccc1)c1ccccc1)N(C(C)=O)CC2` (stereo not drawn) [Example 1, N-acetyl 1-(2,2-diphenyleth-1-yl)-6,7-dimethoxy-1,2,3,4-tetrahydroisoquinoline], for which the concentration for half-maximal inhibition (IC50) (in general, the concentration needed to halve the response being measured) is < 100 nM.

Take `COc1cc2c(cc1OC)C(CC(c1ccccc1)c1ccccc1)N(C=O)CC2` (stereo not drawn) [Example 2, N-formyl 1-(2,2-diphenyleth-1-yl)-6,7-dimethoxy-1,2,3,4-tetrahydroisoquinoline]: the half-inhibitory concentration (IC50) is < 100 nM.

For the molecule `CCC(=O)N1CCc2cc(OC)c(OC)cc2C1CC(c1ccccc1)c1ccccc1` (stereo not drawn) [Example 3, N-propionyl 1-(2,2-diphenyleth-1-yl)-6,7-dimethoxy-1,2,3,4-tetrahydroisoquinoline], the half-maximal inhibitory concentration (IC50) was < 100 nM.

For `CCCC(=O)N1CCc2cc(OC)c(OC)cc2C1CC(c1ccccc1)c1ccccc1` (stereo not drawn) [Example 4, N-butyryl 1-(2,2-diphenyleth-1-yl)-6,7-dimethoxy-1,2,3,4-tetrahydroisoquinoline], the half-inhibitory concentration (IC50) was < 100 nM.

Turning to `COc1cc2c(cc1OC)C(CC(c1ccccc1)c1ccccc1)N(C(=O)C1CC1)CC2` (stereo not drawn) [Example 5, N-cyclopropylcarbonyl 1-(2,2-diphenyleth-1-yl)-6,7-dimethoxy-1,2,3,4-tetrahydroisoquinoline], the IC50 is < 100 nM.

On to `COc1cc2c(cc1OC)C(CC(c1ccccc1)c1ccccc1)N(C(=O)c1ccccc1)CC2` (stereo not drawn) [Example 6, N-benzoyl 1-(2,2-diphenyleth-1-yl)-6,7-dimethoxy-1,2,3,4-tetrahydroisoquinoline], for which the IC50 lay in the range of 100 to 1000 nM.

On to `COc1cc2c(cc1OC)C(CC(c1ccccc1)c1ccccc1)N(C(=O)C(F)(F)F)CC2` (stereo not drawn) [Example 7, N-trifluoroacetyl 1-(2,2-diphenyleth-1-yl)-6,7-dimethoxy-1,2,3,4-tetrahydroisoquinoline], for which the IC50 fell in the range of 100 to 1000 nM.

For `COc1cc2c(cc1OC)C(CC(c1ccccc1)c1ccccc1)N(C(N)=O)CC2` (stereo not drawn) [Example 8, N-carbamoyl 1-(2,2-diphenyleth-1-yl)-6,7-dimethoxy-1,2,3,4-tetrahydroisoquinoline], the half-maximal inhibitory concentration (IC50) was < 100 nM.

`CNC(=O)N1CCc2cc(OC)c(OC)cc2C1CC(c1ccccc1)c1ccccc1` (stereo not drawn) [Example 9, N-methylcarbamoyl 1-(2,2-diphenyleth-1-yl)-6,7-dimethoxy-1,2,3,4-tetrahydroisoquinoline]: the half-maximal inhibitory concentration (IC50) was < 100 nM.

With `COC(=O)N1CCc2cc(OC)c(OC)cc2C1CC(c1ccccc1)c1ccccc1` (stereo not drawn) [Example 10, N-carbomethoxy 1-(2,2-diphenyleth-1-yl)-6,7-dimethoxy-1,2,3,4-tetrahydroisoquinoline], the IC50 is < 100 nM.

On to `COc1cc2c(cc1OC)C(CC(c1ccccc1)c1ccccc1)N(S(C)(=O)=O)CC2` (stereo not drawn) [Example 12], for which the IC50 is < 100 nM.

For `COc1cc2c(cc1OC)C(CC(c1ccccc1)c1ccccc1)N(C(=O)c1cccs1)CC2` (stereo not drawn) [Example 13], the IC50 lay within 100 to 1000 nM.

As to `COc1cc2c(cc1OC)C(CCc1ccccc1)N(C(C)=O)CC2` (stereo not drawn) [Example 14], the concentration for half-maximal inhibition (IC50) is < 100 nM.

As for `COc1cc2c(cc1OC)C(CCc1ccccc1)N(C=O)CC2` (stereo not drawn) [Example 15], the 50% inhibitory concentration (IC50) was < 100 nM.

`COc1cc2c(cc1OC)C(CCc1ccccc1)N(C(N)=O)CC2` (stereo not drawn) [Example 16]: the concentration for half-maximal inhibition (IC50) lay in the range of 100 to 1000 nM.

With `COc1ccc2c(c1)CCN(C(C)=O)C2CC(c1ccccc1)c1ccccc1` (stereo not drawn) [Example 17], the IC50 is 100 to 1000 nM.

As for `COc1cc2c(cc1OC)C(CC(C)c1ccccc1)N(C(C)=O)CC2` (stereo not drawn) [Example 18], the IC50 fell in the range of 100 to 1000 nM.

Consider `COc1ccc2c(c1)C(CC(c1ccccc1)c1ccccc1)N(C(C)=O)CC2` (stereo not drawn) [Example 19], for which the IC50 was < 100 nM.

Turning to `COc1ccc2c(c1)C(CC(c1ccccc1)c1ccccc1)N(C(C)=O)CC2` (stereo not drawn) [Example 20], the IC50 is < 100 nM.

Take `COc1cc2c(c(OC)c1)C(CC(c1ccccc1)c1ccccc1)N(C(C)=O)CC2` (stereo not drawn) [Example 21]: the half-inhibitory concentration (IC50) is < 100 nM.

For the molecule `COc1cc2c(cc1Br)CCN(C(C)=O)C2CC(c1ccccc1)c1ccccc1` (stereo not drawn) [Example 22], the IC50 was < 100 nM.

For `COc1ccc2c(c1OC)CCN(C(C)=O)C2CC(c1ccccc1)c1ccccc1` (stereo not drawn) [Example 24], the 50% inhibitory concentration (IC50) lay in the range of 100 to 1000 nM.

For the molecule `COc1ccc(C(CC2c3cc(OC)c(OC)cc3CCN2C(C)=O)c2ccc(OC)cc2)cc1` (stereo not drawn) [Example 25], the half-maximal inhibitory concentration (IC50) was 100 to 1000 nM.

For the molecule `COc1cc2c(cc1OC)C(CC1c3ccccc3-c3ccccc31)N(C(C)=O)CC2` (stereo not drawn) [Example 26], the IC50 lay in the range of 100 to 1000 nM.

As to `CC(=O)N1CCc2cc(F)ccc2C1CC(c1ccccc1)c1ccccc1` (stereo not drawn) [Example 28], the half-inhibitory concentration (IC50) is 100 to 1000 nM.

In the case of `COc1cccc2c1CCN(C(C)=O)C2CC(c1ccccc1)c1ccccc1` (stereo not drawn) [Example 29], the half-maximal inhibitory concentration (IC50) was in the range of 100 to 1000 nM.

`COc1cc2c(cc1Br)CCN(C(=O)c1ccco1)C2CC(c1ccccc1)c1ccccc1` (stereo not drawn) [Example 30]: the IC50 was in the range of 100 to 1000 nM.

Take `COc1cc2c(cc1Br)CCN(C(=O)COc1ccccc1)C2CC(c1ccccc1)c1ccccc1` (stereo not drawn) [Example 31]: the IC50 lay in the range of 100 to 1000 nM.

In the case of `COc1cc2c(cc1Br)CCN(C(=O)C1CCC1)C2CC(c1ccccc1)c1ccccc1` (stereo not drawn) [Example 32], the IC50 lay within 100 to 1000 nM.

With `COc1cc2c(cc1Br)CCN(C(=O)C1CCCCC1)C2CC(c1ccccc1)c1ccccc1` (stereo not drawn) [Example 33], the concentration for half-maximal inhibition (IC50) fell in the range of 100 to 1000 nM.

On to `CCCCCC(=O)N1CCc2cc(Br)c(OC)cc2C1CC(c1ccccc1)c1ccccc1` (stereo not drawn) [Example 34], for which the IC50 is 100 to 1000 nM.

Regarding `CCCCCCC(=O)N1CCc2cc(Br)c(OC)cc2C1CC(c1ccccc1)c1ccccc1` (stereo not drawn) [Example 35], the concentration for half-maximal inhibition (IC50) is < 100 nM.

In the case of `COc1cc2c(cc1Br)CCN(C(=O)CC(C)(C)C)C2CC(c1ccccc1)c1ccccc1` (stereo not drawn) [Example 36], the concentration for half-maximal inhibition (IC50) is 100 to 1000 nM.

Regarding `COc1cc2c(cc1Br)CCN(C(=O)c1cccc([N+](=O)[O-])c1)C2CC(c1ccccc1)c1ccccc1` (stereo not drawn) [Example 37], the concentration for half-maximal inhibition (IC50) lay within 100 to 1000 nM.

With `COc1cc2c(cc1Br)CCN(C(=O)c1ccc([N+](=O)[O-])cc1)C2CC(c1ccccc1)c1ccccc1` (stereo not drawn) [Example 38], the IC50 lay in the range of 100 to 1000 nM.

`COc1cc2c(cc1Br)CCN(C(=O)c1ccc(C)cc1)C2CC(c1ccccc1)c1ccccc1` (stereo not drawn) [Example 39]: the IC50 was in the range of 100 to 1000 nM.

Take `COc1cc2c(cc1Br)CCN(C(=O)c1ccc(C(F)(F)F)cc1)C2CC(c1ccccc1)c1ccccc1` (stereo not drawn) [Example 40]: the half-maximal inhibitory concentration (IC50) was 100 to 1000 nM.

As to `COc1cc2c(cc1OC)C(CC(c1ccccc1)c1ccccc1)N(C(=O)c1ccco1)CC2` (stereo not drawn) [Example 41], the IC50 lay in the range of 100 to 1000 nM.

In the case of `COc1cc2c(cc1OC)C(CC(c1ccccc1)c1ccccc1)N(C(=O)c1ccccc1OC)CC2` (stereo not drawn) [Example 42], the half-maximal inhibitory concentration (IC50) fell in the range of 100 to 1000 nM.

Turning to `COc1cc2c(cc1OC)C(CC(c1ccccc1)c1ccccc1)N(C(=O)C1CCC1)CC2` (stereo not drawn) [Example 43], the IC50 lay within 100 to 1000 nM.

`COc1cc2c(cc1OC)C(CC(c1ccccc1)c1ccccc1)N(C(=O)C1CCCCC1)CC2` (stereo not drawn) [Example 44]: the half-inhibitory concentration (IC50) was < 100 nM.

As to `CCCCCCC(=O)N1CCc2cc(OC)c(OC)cc2C1CC(c1ccccc1)c1ccccc1` (stereo not drawn) [Example 45], the IC50 was 100 to 1000 nM.

As for `COc1cc2c(cc1OC)C(CC(c1ccccc1)c1ccccc1)N(C(=O)c1ccc(C(F)(F)F)cc1)CC2` (stereo not drawn) [Example 54], the IC50 fell in the range of 100 to 1000 nM.

On to `COc1cc2c(cc1OC)C(CCc1ccccc1)N(C(=O)c1ccco1)CC2` (stereo not drawn) [Example 55], for which the half-inhibitory concentration (IC50) is < 100 nM.

For `COc1cc2c(cc1OC)C(CCc1ccccc1)N(C(=O)COc1ccccc1)CC2` (stereo not drawn) [Example 56], the half-inhibitory concentration (IC50) fell in the range of 100 to 1000 nM.

As for `COc1cc2c(cc1OC)C(CCc1ccccc1)N(C(=O)C1CCC1)CC2` (stereo not drawn) [Example 57], the 50% inhibitory concentration (IC50) was < 100 nM.

On to `COc1cc2c(cc1OC)C(CCc1ccccc1)N(C(=O)C1CCCCC1)CC2` (stereo not drawn) [Example 58], for which the 50% inhibitory concentration (IC50) is 100 to 1000 nM.

On to `COc1cc2c(cc1OC)C(CCc1ccccc1)N(C(=O)C(C)C)CC2` (stereo not drawn) [Example 59], for which the 50% inhibitory concentration (IC50) was in the range of 100 to 1000 nM.

Regarding `CCCCCC(=O)N1CCc2cc(OC)c(OC)cc2C1CCc1ccccc1` (stereo not drawn) [Example 60], the IC50 lay within 100 to 1000 nM.

In the case of `CCCCCCC(=O)N1CCc2cc(OC)c(OC)cc2C1CCc1ccccc1` (stereo not drawn) [Example 61], the IC50 was 100 to 1000 nM.

Turning to `CCCCCCCCCC(=O)N1CCc2cc(OC)c(OC)cc2C1CCc1ccccc1` (stereo not drawn) [Example 62], the IC50 fell in the range of 100 to 1000 nM.

Regarding `COc1cc2c(cc1OC)C(CCc1ccccc1)N(C(=O)CC(C)(C)C)CC2` (stereo not drawn) [Example 63], the IC50 is 100 to 1000 nM.

As for `COc1ccc(C(=O)N2CCc3cc(OC)c(OC)cc3C2CCc2ccccc2)cc1` (stereo not drawn) [Example 64], the 50% inhibitory concentration (IC50) was < 100 nM.

Consider `COc1cc2c(cc1OC)C(CCc1ccccc1)N(C(=O)c1cccc([N+](=O)[O-])c1)CC2` (stereo not drawn) [Example 65], for which the IC50 was 100 to 1000 nM.

As to `COc1cc2c(cc1OC)C(CCc1ccccc1)N(C(=O)c1ccc([N+](=O)[O-])cc1)CC2` (stereo not drawn) [Example 66], the IC50 fell in the range of 100 to 1000 nM.

As to `COc1cc2c(cc1OC)C(CCc1ccccc1)N(C(=O)c1cccc(C)c1)CC2` (stereo not drawn) [Example 67], the IC50 was in the range of 100 to 1000 nM.

As to `COc1cc2c(cc1OC)C(CCc1ccccc1)N(C(=O)Cc1ccccc1)CC2` (stereo not drawn) [Example 68], the IC50 fell in the range of 100 to 1000 nM.
